Assay results: US6046043A, “Method for the conversion of carbonyl compounds to their β-unsaturated derivatives using molecular oxygen as the oxidant” (The Regents of the University of Michigan, priority 1998, dated 2000)
Values belong to the molecule of their own block, whether it stands above or below them.

Legend:
8-CN-FMN-OYE = molecular target: T1, 8-CN-FMN-OYE (Saccharomyces pastorianus, UniProt Q02899); experiment: Oxidation of saturated carbonyl substrates by the catalyst with molecular oxygen (GC/MS); format: biochemical
T1 construct: made in house; host or cells: Escherichia coli (plasmid pET-3b)
Experimental: Two ml of 10 mM solution of hydrocinnamaldehyde (C6 H5 --CH2 --CH2 --CHO) in 100 mM sodium pyrophosphate buffer, pH 8.5 was taken in a 5 ml test tube with a small magnetic stir bar at room temperature. The catalyst, as a concentrated solution in the same buffer, was added to the above solution so that final concentration of the catalyst is 10 μM. […]
When and wherever side reactions were observed due to hydrogen peroxide (which is produced during the oxidation), 5 μl of catalase (1 mg/ml) was added to the reaction mixture prior to the addition of the catalyst as a hydrogen peroxide scavenger.
The racemic 3-phenyl-butyraldehyde was subjected to typical oxidation reaction with the catalytic system of the present invention. […] It can be concluded, in analogy to the 3-Me-cyclopentanone reaction, that the oxidation of S-enantiomer only catalyzed by the catalyst leaving the R-enantiomer intact as hydrogen at the asymmetric center lies in unfavorable geometry. This reaction once again highlights the potential of the present catalytic system in resolving racemic carbonyl compounds.

[1] = Redox potential of flavin cofactor; format: physicochemical
Old Yellow Enzyme = molecular target: T2, Old Yellow Enzyme (Saccharomyces pastorianus, UniProt Q02899); experiment: p-Cl-phenol binding to native Old Yellow Enzyme (charge transfer complex); design: species or system Brewer's Bottom Yeast
T2 construct: recombinant OYE I (pET-3b, E. coli) or enzyme isolated from brewer's bottom yeast (mix of close OYE isoforms)
Experimental: The apoprotein of Old Yellow Enzyme was prepared and reconstituted with 8-CN-8-demethyl-flavin mononucleotide as described above. […] Native enzyme binds p-Cl-phenol with a Kd of~1 μM and has a maximum of 645 nm for the charge transfer absorption band. The 115 nm blue shift thus falls in line with the 170 mV more positive potential compared to that of the native flavin.

T1 sequence (Q02899 whole entry): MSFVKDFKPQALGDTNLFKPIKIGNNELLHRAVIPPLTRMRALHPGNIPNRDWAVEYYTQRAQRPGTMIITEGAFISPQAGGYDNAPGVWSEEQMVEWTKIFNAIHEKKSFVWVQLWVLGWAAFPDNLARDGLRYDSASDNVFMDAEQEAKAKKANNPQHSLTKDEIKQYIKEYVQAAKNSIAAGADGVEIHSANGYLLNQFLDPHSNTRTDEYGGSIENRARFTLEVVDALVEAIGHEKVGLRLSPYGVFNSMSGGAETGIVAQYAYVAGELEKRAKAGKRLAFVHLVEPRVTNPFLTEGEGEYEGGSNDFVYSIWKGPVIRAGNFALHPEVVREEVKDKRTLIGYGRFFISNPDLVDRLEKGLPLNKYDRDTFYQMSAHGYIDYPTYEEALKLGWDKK
T2 sequence (Q02899 2-400): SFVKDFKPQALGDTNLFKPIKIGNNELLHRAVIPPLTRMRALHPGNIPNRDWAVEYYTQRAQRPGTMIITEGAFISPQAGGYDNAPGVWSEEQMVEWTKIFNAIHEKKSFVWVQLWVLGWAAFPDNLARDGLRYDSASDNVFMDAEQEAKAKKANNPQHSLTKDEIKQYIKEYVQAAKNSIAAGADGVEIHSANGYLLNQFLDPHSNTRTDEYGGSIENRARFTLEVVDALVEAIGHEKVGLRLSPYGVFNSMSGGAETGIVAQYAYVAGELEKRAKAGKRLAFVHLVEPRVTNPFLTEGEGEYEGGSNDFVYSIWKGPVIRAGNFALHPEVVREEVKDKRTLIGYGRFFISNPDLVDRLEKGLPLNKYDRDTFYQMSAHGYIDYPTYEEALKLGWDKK

- substrate reacted (8-CN-FMN-OYE; racemic substrate, 36 hours-48 hours, GC/MS): ~ 50%
SMILES: CC(CC=O)c1ccccc1 (racemic) [3-phenyl-butyraldehyde]

- redox potential [1]: -38 mV
- redox potential positive to the native cofactor, FMN ([1]; difference versus FMN): about 170 mV
SMILES: Cc1cc2nc3c(=O)[nH]c(=O)nc-3n(C[C@H](O)[C@H](O)[C@H](O)COP(=O)(O)O)c2cc1C#N [8-CN-FMN, 8-CN-8-demethyl-flavin mononucleotide]

SMILES: O=CCCc1ccccc1 [hydrocinnamaldehyde]
- conversion of the substrate to cinnamaldehyde (8-CN-FMN-OYE; 10 mM substrate, 10 μM catalyst, pH 8.5, room temperature, 3 hours, GC/mass spectral analysis): complete conversion

SMILES: Oc1ccc(Cl)cc1 [p-Cl-phenol]
- Kd (Old Yellow Enzyme): ~1000 nM
